≈ marks a conversion by molar mass, not a printed value. Calls of active or inactive are those of the source. The calls are words filed in the database; no cut-off is given here.
How the values were obtained:
[1] = test system: Candida albicans; assay: Antifungal activity against Candida albicans CGMCC 2.2086 assessed as inhibition of fungal growth incubated for 48 hrs; type: functional
[2] = test system: Candida tropicalis; assay: Antifungal activity against Candida tropicalis CGMCC 2.1975 assessed as inhibition of fungal growth incubated for 48 hrs; type: functional
[3] = test system: Candida albicans; assay: Antifungal activity against Candida albicans SP3902 assessed as inhibition of fungal growth incubated for 48 hrs; type: functional
[4] = test system: Candida albicans; assay: Antifungal activity against Candida albicans SP3903 assessed as inhibition of fungal growth incubated for 48 hrs; type: functional
[5] = test system: Candida albicans; assay: Antifungal activity against Fluconazole-resistant Candida albicans 58288 assessed as inhibition of fungal growth incubated for 48 hrs; type: functional
[6] = test system: Candida albicans; assay: Antifungal activity against Candida albicans SP3876 assessed as inhibition of fungal growth incubated for 48 hrs; type: functional
[7] = test system: Candida albicans; assay: Antifungal activity against Candida albicans SP3931 assessed as inhibition of fungal growth incubated for 48 hrs; type: functional
[8] = test system: Candida albicans; assay: Antifungal activity against Candida albicans 14936 assessed as inhibition of fungal growth incubated for 48 hrs; type: functional
[9] = test system: Candida albicans; assay: Antifungal activity against Candida albicans 17546 assessed as inhibition of fungal growth incubated for 48 hrs; type: functional
[10] = test system: Candida albicans; assay: Antifungal activity against Fluconazole-resistant Candida albicans 56214 assessed as inhibition of fungal growth incubated for 48 hrs; type: functional
[11] = test system: Candida albicans; assay: Antifungal activity against Candida albicans 56452 assessed as inhibition of fungal growth incubated for 48 hrs; type: functional
[12] = test system: Candida parapsilosis; assay: Antifungal activity against Candida parapsilosis CGMCC 2.3989 assessed as inhibition of fungal growth incubated for 48 hrs; type: functional; details: Lodderomyces parapsilosis
[13] = Proteolytic stability of the compound assessed as trypsin (unknown origin)-mediated drug degradation measured after 8 hrs by 16.5% tricine-SDS-PAGE analysis; type: ADME; details: human
[14] = test system: Candida albicans; assay: Antifungal activity against Candida albicans CGMCC 2.2086 assessed as inhibition of fungal growth incubated for 2 hrs in presence of trypsin; type: functional, organism-based
[15] = test system: Candida albicans; assay: Antifungal activity against Candida albicans CGMCC 2.2086 assessed as inhibition of fungal growth incubated for 2 hrs in presence of chymotrypsin; type: functional, organism-based
[16] = test system: Candida albicans; assay: Antifungal activity against Candida albicans CGMCC 2.2086 assessed as inhibition of fungal growth incubated for 2 hrs in presence of protease K; type: functional, organism-based
[17] = Proteolytic stability of the compound assessed as chymotrypsin (unknown origin)-mediated drug degradation measured after 8 hrs by 16.5% tricine-SDS-PAGE analysis; type: ADME; details: human
[18] = Proteolytic stability of the compound assessed as protease K (unknown origin)-mediated drug degradation measured after 8 hrs by 16.5% tricine-SDS-PAGE analysis; type: ADME; details: human
[19] = test system: Candida albicans; assay: Antifungal activity against Candida albicans CGMCC 2.2086 infected in C57BL/6 mouse keratitis model assessed as reduction in clinical scores at 1 mg/ml administered as 10 uL eye drop every 5 mins for first 1 hr and every 30 mins for next 7 hrs; type: functional, organism-based; details: route ou, time 8.0 hrs
[20] = test system: Candida albicans; assay: Antifungal activity against Candida albicans CGMCC 2.2086 infected in C57BL/6 mouse keratitis model assessed as reduction in fungal cell count at 1 mg/ml administered as 10 uL eye drop every 5 mins for first 1 hr and every 30 mins for next 7 hrs; type: functional, organism-based; details: route ou, time 8.0 hrs
[21] = test system: Candida albicans; assay: Antifungal activity against Candida albicans CGMCC 2.2086 infected in C57BL/6 mouse keratitis model assessed as reduction in mycelia in the eyes at 1 mg/ml administered as 10 uL eye drop every 5 mins for first 1 hr and every 30 mins for next 7 hrs by Schiff staining based assay; type: functional, organism-based; details: route ou, time 8.0 hrs

Row | SMILES | MIC95 [1] [µM] | MIC95 [2] [µM] | MIC95 [3] [µM] | MIC95 [4] [µM] | MIC95 [5] [µM] | MIC95 [6] [µM] | MIC95 [7] [µM] | MIC95 [8] [µM] | MIC95 [9] [µM] | MIC95 [10] [µM] | MIC95 [11] [µM] | MIC95 [12] [µM] | further results
1 | CC[C@H](C)[C@H](NC(=O)CN)C(=O)NCC(=O)N[C@@H](C)C(=O)N[C@H](C(=O)N[C@@H](CC(C)C)C(=O)N[C@@H](CCCCN)C(=O)N[C@H](C(=O)N[C@@H](CC(C)C)C(=O)N[C@H](C(=O)N[C@H](C(=O)NCC(=O)N[C@@H](CC(C)C)C(=O)N1CCC[C@H]1C(=O)N[C@@H](C)C(=O)N[C@@H](CC(C)C)C(=O)N[C@H](C(=O)N[C@@H](CO)C(=O)N[C@@H](Cc1c[nH]c2ccccc12)C(=O)N[C@H](C(=O)N[C@@H](CCCCN)C(=O)N[C@@H](CCCNC(=N)N)C(=O)N[C@@H](CCCCN)C(=O)N[C@@H](CCCNC(=N)N)C(=O)N[C@@H](CCC(N)=O)C(=O)N[C@@H](CCC(N)=O)C(N)=O)[C@@H](C)CC)[C@@H](C)CC)[C@@H](C)O)[C@@H](C)O)C(C)C)C(C)C [MELITTIN] | 4 (≈ 11.4 µg/mL) | 2 (≈ 5.69 µg/mL) | 4 (≈ 11.4 µg/mL) | 4 (≈ 11.4 µg/mL) | 4 (≈ 11.4 µg/mL) | 4 (≈ 11.4 µg/mL) | 4 (≈ 11.4 µg/mL) | 4 (≈ 11.4 µg/mL) | 4 (≈ 11.4 µg/mL) | 2 (≈ 5.69 µg/mL) | 4 (≈ 11.4 µg/mL) | 2 (≈ 5.69 µg/mL) | Stability [13]: Unstable; Activity [14]: inactive; Activity [15]: inactive; Activity [16]: inactive; Stability [17]: Unstable; Stability [18]: Unstable
2 | C[C@@H]1[C@H](O)[C@@H](C)/C=C/C=C/C=C/C=C/C=C/C=C/C=C/[C@H](O[C@@H]2O[C@H](C)[C@@H](O)[C@H](N)[C@@H]2O)C[C@@H]2O[C@](O)(C[C@@H](O)C[C@@H](O)[C@H](O)CC[C@@H](O)C[C@@H](O)CC(=O)O[C@H]1C)C[C@H](O)[C@H]2C(=O)O [AMPHOTERICIN B] | 0.25 (≈ 0.231 µg/mL) | 0.25 (≈ 0.231 µg/mL) | 0.25 (≈ 0.231 µg/mL) | 0.25 (≈ 0.231 µg/mL) | 0.25 (≈ 0.231 µg/mL) | 0.25 (≈ 0.231 µg/mL) | 0.25 (≈ 0.231 µg/mL) | 0.25 (≈ 0.231 µg/mL) | 0.25 (≈ 0.231 µg/mL) | 0.25 (≈ 0.231 µg/mL) | 0.25 (≈ 0.231 µg/mL) | 0.25 (≈ 0.231 µg/mL) | Activity [19]: Active; Activity [20]: Active; Activity [21]: Active; Mycelia In The Eyes Was Either Absent Or Minimal

Source: ChEMBL document CHEMBL6134779, “Design of Proteolytic-Resistant Antifungal Peptides by Utilizing Minimum d-Amino Acid Ratios” (J Med Chem, 2024)
